Test results reported in patent publication US10562890B2, “Cancer therapeutics” (UNIVERSITY OF VIRGINIA PATENT FOUNDATION, priority 2014, dated 2020).

Experiments:
[1] = molecular target: binding of CBFβ to RUNX1 in SEM cells (Homo sapiens (Human), UniProt Q13951); assay: Co-immunoprecipitation of CBFβ with RUNX1 in SEM cells; format: cell-based; conditions: 10 μM, 6 hours
Procedure: To test whether the wild-type CBFβ Inhibitors can disrupt the binding of CBFβ to RUNX1 in cells, co-immunoprecipitation experiments were performed in the SEM cell line. Co-immunoprecipitation assays of lysates from […] SEM cells were treated with Al-4-88^1, Al-10-47, Al-10-104, Al-12-126 and Al-14-91 at 10 μM for 6 hours. RUNX1-bound CBFβ protein levels and immunoprecipitated RUNX1 are shown on the top panel of FIG. 2A. Quantification of RUNX1 bound CBFβ is shown on the bottom graph.

MLL-AF4 leukemia cells = assay: Cell death of MLL-AF4 leukemia cells; format: cell-based, human
T-ALL cell lines = assay: Apoptosis in T-ALL cell lines; format: cell-based, human
[2] = molecular target: CBFβ binding to the RUNX1 Runt domain (Homo sapiens (Human), UniProt Q13951); assay: FRET assay, inhibition of CBFβ binding to the RUNX1 Runt domain; conditions: inhibition of wild-type CBFβ binding to the RUNX1 Runt domain; NA = not active
Sequence of CBFβ binding to the RUNX1 Runt domain (Q13951 1-141): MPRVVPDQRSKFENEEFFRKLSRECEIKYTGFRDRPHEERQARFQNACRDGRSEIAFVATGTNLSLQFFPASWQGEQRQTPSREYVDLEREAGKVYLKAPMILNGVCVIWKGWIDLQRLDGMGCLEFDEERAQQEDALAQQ
From the text: Fluorescence Resonance Energy Transfer (FRET) Assay:
As described in U.S. Pat. No. 8,748,618 and published PCT application WO2010/132684, a FRET assay can be used to effectively monitor the inhibition of CBF binding to the Runt domain of RUNX proteins (as well as for CBFβ-SMMHC binding to the Runt domain of RUNX proteins). For the assay, the green fluorescent protein derivative Cerulean is fused to the N-terminus of the Runt domain and the green fluorescent protein derivative Venus to the N-terminus of CBFβ (Gorczynski, M. J., J. Grembecka, et al. (2007), “Allosteric inhibition of the protein-protein interaction between the leukemia-associated proteins Runx1 and CBFbeta.” Chem Biol 14(10): 1186-97), or to CBFβ-SMMHC (Illendula, A. et al. Chemical biology. A small-molecule inhibitor of the aberrant transcription factor CBFbeta-SMMHC delays leukemia in mice. Science 347, 779-784, doi:10.1126/science.aaa0314 (2015)). The ratio of the emission intensities at 525 nm and 474 nm, measured after excitation at 433 nm, was used as the readout in this assay. The dynamic range for the FRET assay was determined by adding a 30-fold excess of untagged CBFβ (or CBFβ-SMMHC) to the assay and the associated change in the FRET ratio was defined as 100% inhibition.

Sequence of binding of CBFβ to RUNX1 in SEM cells (Q13951 whole entry): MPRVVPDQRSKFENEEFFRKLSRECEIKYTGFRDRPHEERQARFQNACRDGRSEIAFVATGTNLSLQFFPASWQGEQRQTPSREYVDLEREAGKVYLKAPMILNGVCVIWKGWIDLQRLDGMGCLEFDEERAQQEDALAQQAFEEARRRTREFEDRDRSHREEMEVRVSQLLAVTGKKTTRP

SMILES: COc1cccnc1-c1nc2cc(OC(F)(F)F)ccc2[nH]1 [Al-10-104]
- RUNX1-bound CBFβ (co-immunoprecipitation) [1]: reduction in binding
- cell death (MLL-AF4 leukemia cells): induced cell death
- apoptosis (T-ALL cell lines): induced apoptosis
- IC50 [2]: 2650 ± 180 nM
